Results published in ChEMBL document CHEMBL3217497, “Design, synthesis and antiproliferative activity of indole analogues of indanocine” (2013).

Tests used:
Assay type in all cases: functional
[1] = system: BT-549; assay: Cytotoxicity against human BT549 cells assessed as growth inhibition
[2] = Cytotoxicity against human OVCAR8 cells assessed as growth inhibition; settings: OVCAR-8
[3] = system: TK-10; assay: Cytotoxicity against human TK10 cells assessed as growth inhibition
[4] = Cytotoxicity against human UO31 cells assessed as growth inhibition; settings: UO-31
[5] = Cytotoxicity against human OVCAR5 cells assessed as growth inhibition; settings: OVCAR-5
[6] = system: ACHN; assay: Cytotoxicity against human ACHN cells assessed as growth inhibition
[7] = system: MDA-MB-231; assay: Cytotoxicity against human MDA-MB-231 cells assessed as growth inhibition
[8] = system: SR; assay: Cytotoxicity against human SR cells assessed as growth inhibition
[9] = system: HCT-116; assay: Cytotoxicity against human HCT116 cells assessed as growth inhibition
[10] = system: M14; assay: Cytotoxicity against human M14 cells assessed as growth inhibition
[11] = system: SW-620; assay: Cytotoxicity against human SW620 cells assessed as growth inhibition
[12] = system: SNB-19; assay: Cytotoxicity against human SNB19 cells assessed as growth inhibition
[13] = Cytotoxicity against human NCI-ADR-RES cells assessed as growth inhibition
[14] = system: MDA-MB-435; assay: Cytotoxicity against human MDA-MB-435 cells assessed as growth inhibition
[15] = system: KM12; assay: Cytotoxicity against human KM12 cells assessed as growth inhibition
[16] = system: NCI-H522; assay: Cytotoxicity against human NCI-H522 cells assessed as growth inhibition
[17] = system: CCRF-CEM; assay: Cytotoxicity against human CCRF-CEM cells assessed as growth inhibition
[18] = Cytotoxicity against human OVCAR4 cells assessed as growth inhibition; settings: OVCAR-4
[19] = system: HT-29; assay: Cytotoxicity against human HT-29 cells assessed as growth inhibition
[20] = system: SK-MEL-5; assay: Cytotoxicity against human SK-MEL-5 cells assessed as growth inhibition
[21] = system: SF-295; assay: Cytotoxicity against human SF295 cells assessed as growth inhibition
[22] = system: HOP-92; assay: Cytotoxicity against human HOP92 cells assessed as growth inhibition
[23] = Cytotoxicity against human UACC257 cells assessed as growth inhibition; settings: UACC-257
[24] = system: SK-OV-3; assay: Cytotoxicity against human SKOV3 cells assessed as growth inhibition
[25] = Cytotoxicity against human EKVX cells assessed as growth inhibition
[26] = Cytotoxicity against human UACC62 cells assessed as growth inhibition; settings: UACC-62
[27] = system: HOP-62; assay: Cytotoxicity against human HOP62 cells assessed as growth inhibition
[28] = system: DU-145; assay: Cytotoxicity against human DU145 cells assessed as growth inhibition
[29] = system: LOX IMVI; assay: Cytotoxicity against human LOXIMVI cells assessed as growth inhibition
[30] = system: SK-MEL-28; assay: Cytotoxicity against human SK-MEL-28 cells assessed as growth inhibition
[31] = system: SN12C; assay: Cytotoxicity against human SN12C cells assessed as growth inhibition
[32] = system: RPMI-8226; assay: Cytotoxicity against human RPMI8226 cells assessed as growth inhibition
[33] = system: A498; assay: Cytotoxicity against human A498 cells assessed as growth inhibition
[34] = system: T47D; assay: Cytotoxicity against human T47D cells assessed as growth inhibition
[35] = Cytotoxicity against human HCT15 cells assessed as growth inhibition; settings: HCT-15
[36] = system: MOLT-4; assay: Cytotoxicity against human MOLT4 cells assessed as growth inhibition
[37] = system: HCC 2998; assay: Cytotoxicity against human HCC2998 cells assessed as growth inhibition
[38] = system: PC-3; assay: Cytotoxicity against human PC3 cells assessed as growth inhibition
[39] = system: NCI-H322M; assay: Cytotoxicity against human NCI-H322M cells assessed as growth inhibition
[40] = system: SF-268; assay: Cytotoxicity against human SF268 cells assessed as growth inhibition
[41] = system: 786-0; assay: Cytotoxicity against human 786-0 cells assessed as growth inhibition
[42] = system: CAKI-1; assay: Cytotoxicity against human CAKI-1 cells assessed as growth inhibition
[43] = system: K562; assay: Cytotoxicity against human K562 cells assessed as growth inhibition
[44] = system: MCF7; assay: Cytotoxicity against human MCF7 cells assessed as growth inhibition
[45] = system: SF-539; assay: Cytotoxicity against human SF539 cells assessed as growth inhibition
[46] = system: NCI-H226; assay: Cytotoxicity against human NCI-H226 cells assessed as growth inhibition
[47] = system: SK-MEL-2; assay: Cytotoxicity against human SK-MEL-2 cells assessed as growth inhibition
[48] = system: NCI-H23; assay: Cytotoxicity against human NCI-H23 cells assessed as growth inhibition
[49] = system: U-251; assay: Cytotoxicity against human U251 cells assessed as growth inhibition
[50] = system: HL-60(TB); assay: Cytotoxicity against human HL-60(TB) cells assessed as growth inhibition
[51] = system: IGROV-1; assay: Cytotoxicity against human IGROV1 cells assessed as growth inhibition
[52] = system: A549; assay: Cytotoxicity against human A549 cells assessed as growth inhibition
[53] = system: RXF 393; assay: Cytotoxicity against human RXF393 cells assessed as growth inhibition
[54] = system: COLO 205; assay: Cytotoxicity against human COLO205 cells assessed as growth inhibition
[55] = Cytotoxicity against human OVCAR3 cells assessed as growth inhibition; settings: OVCAR-3
[56] = system: NCI-H460; assay: Cytotoxicity against human NCI-H460 cells assessed as growth inhibition

Q: Which GI50 [1] does the source give for `COc1cc2c(c(N)c1OC)C(=O)/C(=C\c1cc(C)c(O)c(C)c1)C2` [INDANOCINE] here?
A: 10 µM

Q: And the GI50 [2]?
A: 0.01 µM

Q: What about the GI50 [3] of the same compound?
A: 79.4 µM

Q: And the GI50 [4]?
A: 0.08 µM

Q: What about the GI50 [5] of the same compound?
A: 0.63 µM

Q: And the GI50 [6]?
A: 0.06 µM

Q: And the GI50 [7]?
A: 0.01 µM

Q: And the GI50 [8]?
A: 0.01 µM

Q: And the GI50 [9]?
A: 0.01 µM

Q: What about the GI50 [10] of the same compound?
A: 0.01 µM

Q: And the GI50 [11]?
A: 0.01 µM

Q: What about the GI50 [12] of the same compound?
A: 0.01 µM

Q: What about the GI50 [13] of the same compound?
A: 0.01 µM

Q: And the GI50 [14]?
A: 0.01 µM

Q: What about the GI50 [15] of the same compound?
A: 0.01 µM

Q: And the GI50 [16]?
A: 0.01 µM

Q: And the GI50 [17]?
A: 0.01 µM

Q: And the GI50 [18]?
A: 7.94 µM

Q: What about the GI50 [19] of the same compound?
A: 2.51 µM

Q: What about the GI50 [20] of the same compound?
A: 0.01 µM

Q: What about the GI50 [21] of the same compound?
A: 0.06 µM

Q: And the GI50 [22]?
A: 100 µM

Q: What about the GI50 [23] of the same compound?
A: 100 µM

Q: And the GI50 [24]?
A: 0.01 µM

Q: And the GI50 [25]?
A: 0.01 µM

Q: And the GI50 [26]?
A: 0.01 µM

Q: And the GI50 [27]?
A: 0.02 µM

Q: What about the GI50 [28] of the same compound?
A: 0.01 µM

Q: What about the GI50 [29] of the same compound?
A: 0.01 µM

Q: And the GI50 [30]?
A: 1 µM

Q: What about the GI50 [31] of the same compound?
A: 0.01 µM

Q: And the GI50 [32]?
A: 0.01 µM

Q: What about the GI50 [33] of the same compound?
A: 7.94 µM

Q: What about the GI50 [34] of the same compound?
A: 100 µM

Q: What about the GI50 [35] of the same compound?
A: 0.01 µM

Q: What about the GI50 [36] of the same compound?
A: 0.01 µM

Q: And the GI50 [37]?
A: 2 µM

Q: And the GI50 [38]?
A: 0.01 µM

Q: What about the GI50 [39] of the same compound?
A: 0.01 µM

Q: What about the GI50 [40] of the same compound?
A: 0.01 µM

Q: What about the GI50 [41] of the same compound?
A: 0.01 µM

Q: What about the GI50 [42] of the same compound?
A: 3.98 µM

Q: What about the GI50 [43] of the same compound?
A: 0.01 µM

Q: And the GI50 [44]?
A: 0.01 µM

Q: What about the GI50 [45] of the same compound?
A: 0.01 µM

Q: What about the GI50 [46] of the same compound?
A: 3.98 µM

Q: And the GI50 [47]?
A: 1 µM

Q: And the GI50 [48]?
A: 0.01 µM

Q: What about the GI50 [49] of the same compound?
A: 0.02 µM

Q: What about the GI50 [50] of the same compound?
A: 0.01 µM

Q: And the GI50 [51]?
A: 0.04 µM

Q: What about the GI50 [52] of the same compound?
A: 0.01 µM

Q: And the GI50 [53]?
A: 0.03 µM

Q: And the GI50 [54]?
A: 5.01 µM

Q: What about the GI50 [55] of the same compound?
A: 0.01 µM

Q: And the GI50 [56]?
A: 0.01 µM
